Results published in patent publication US9469645B2, “Compounds and compositions for the treatment of parasitic diseases” (Novartis AG, priority 2009, dated 2016).
Where two headings read alike, the source gives them in different places.

Key:
W2 strain = test: parasite proliferation assay in infected red blood cells (SYBR Green I), W2 strain; format: cell-based; settings: Erythrocyte
Text: (§1) Compounds of the invention can be assayed to measure their capacity to inhibit proliferation of parasitemia in infected red blood cells. The proliferation is quantified by the addition of SYBR Green I (INVITROGEN)® dye which has a high affinity for double stranded DNA.

3D7 P. falciparum strain = test: parasite proliferation assay in infected red blood cells (SYBR Green I); format: cell-based, Plasmodium falciparum; settings: Plasmodium falciparum, 3D7, Erythrocyte, read-out: EC50 3D7 strain
Text: as §1
The following assay illustrates the invention without in any way limiting the scope of the invention. This parasite proliferation assay measures the increase in parasite DNA content using a DNA intercalating dye, SYBR Green®.
3D7 P. falciparum strain is grown in complete culturing media until parasitemia reaches 3% to 8% with O+ human erythrocytes. 20 μl of screening media is dispensed into 384 well assay plates. […] 10 μl of lysis buffer (saponin, triton-X, EDTA) containing a 10× solution of SYBR Green I® in RPMI media is dispensed into the plates. The plates are lidded and kept at room temperature overnight for the lysis of the infected red blood cells.

Structure (SMILES) | EC50 (W2 strain) | EC50 (3D7 P. falciparum strain; 3D7 strain) | EC50 (3D7 P. falciparum strain)
Cc1cc(C)cc(Nc2c(-c3ccccc3)nc3n2CCN(C(=O)CN)C3)c1 [Compound 2] | 3350 nM | 3480 nM | –
CC(C)(N)C(=O)N1CCn2c(nc(-c3ccc(F)cc3)c2Nc2ccc(F)cc2)C1 [Compound 3] | 25 nM | 20 nM | –
NCC(=O)N1CCn2c(nc(-c3ccc(F)cc3)c2Nc2ccc(F)cc2)C1 [Compound 4] | 23 nM | 20 nM | –
CC(C)(N)C(=O)N1CCn2c(nc(-c3ccc(F)cc3)c2Nc2ccc3c(c2)OCO3)C1 [Compound 5] | > 8900 nM | 4330 nM | –
NCC(=O)N1CCn2c(nc(-c3ccc(F)cc3)c2NC2CCCC2)C1 [Compound 6] | 4640 nM | 4380 nM | –
NCC(=O)N1CCn2c(nc(-c3ccccc3)c2NC2CCCC2)C1 [Compound 7] | 7780 nM | 15800 nM | –
CC(C)(N)C(=O)N1CCn2c(nc(-c3ccccc3)c2Nc2ccccc2)C1 [Compound 8] | 501 nM | 620 nM | –
COC(=O)c1ccc(Nc2c(-c3ccccc3)nc3n2CCN(C(=O)C(C)(C)N)C3)cc1 [Compound 9] | 3990 nM | 13800 nM | –
CC(C)(N)C(=O)N1CCn2c(nc(-c3ccccc3F)c2Nc2ccc(F)cc2)C1 [Compound 10] | 1280 nM | 1390 nM | –
CC(C)(N)C(=O)N1CCn2c(nc(-c3ccccc3)c2Nc2ccc(F)cc2)C1 [Compound 11] | 168 nM | 200 nM | –
CC(C)(N)C(=O)N1CCn2c(nc(-c3c(F)cc(F)cc3F)c2Nc2ccc(F)cc2)C1 [Compound 12] | 2960 nM | 7400 nM | –
CC(C)(N)C(=O)N1CCn2c(nc(-c3cc(F)cc(F)c3)c2Nc2ccc(F)cc2)C1 [Compound 13] | 137 nM | 260 nM | –
CCCCCc1ccc(-c2nc3n(c2Nc2ccc(F)cc2)CCN(C(=O)C(C)(C)N)C3)cc1 [Compound 14] | 5870 nM | 3590 nM | –
O=C(CN1CCC(C(F)(F)F)CC1)N1CCn2c(nc(-c3ccc(F)cc3)c2Nc2ccc(F)cc2)C1 [Compound 61] | – | 9240 nM | –
NCC(=O)N1CCn2c(nc(-c3ccc(F)cc3)c2Nc2ccc(F)c(Cl)c2)C1 [Compound 78] | – | 10 nM | –
Cc1ccc(Nc2c(-c3ccc(F)cc3)nc3n2CCN(C(=O)C(O)c2ccccc2)C3)cc1 (stereo not drawn) [Compound 82] | 7 nM | – | –
Cc1ccc(Nc2c(-c3ccc(F)cc3)nc3n2CCN(C(=O)CCO)C3)cc1 [Compound 103] | – | 1020 nM | –
Cc1ccc(Nc2c(-c3ccc(F)cc3)nc3n2CCN(C(=O)[C@H]2CCC[C@@H]2O)C3)cc1 [Compound 105] | – | 850 nM | –
Cc1ccc(Nc2c(-c3ccc(F)cc3)nc3n2CCN(C(=O)[C@@H](O)Cc2ccccc2)C3)cc1 [Compound 106] | 4 nM | – | –
Cc1ccc(Nc2c(-c3ccc(F)cc3)nc3n2CCN(C(=O)CC(C)O)C3)cc1 (stereo not drawn) [Compound 108] | – | 960 nM | –
Cc1ccc(Nc2c(-c3ccc(F)cc3)nc3n2CCN(C(=O)[C@H](O)Cc2ccccc2)C3)cc1 [Compound 109] | – | 40 nM | –
Cc1ccc(Nc2c(-c3ccc(F)cc3)nc3n2CCN(C(=O)C(C)(O)c2ccccc2)C3)cc1 (stereo not drawn) [Compound 111] | – | 20 nM | –

Structure (SMILES) | EC50 (W2 strain) | EC50 (3D7 P. falciparum strain; 3D7 strain) | EC50 (3D7 P. falciparum strain)
Cc1ccc(Nc2c(-c3ccc(F)cc3)nc3n2CCN(C(=O)C(O)(c2ccccc2)c2ccccc2)C3)cc1 [Compound 112] | – | – | 1430 nM
Cc1ccc(Nc2c(-c3ccc(F)cc3)nc3n2CCN(C(=O)C(C)(C)C(O)c2ccc(C)cc2)C3)cc1 (stereo not drawn) [Compound 119] | – | 4740 nM | –
Cc1ccc(Nc2c(-c3ccc(F)cc3)nc3n2CCN(C(=O)C(O)c2cc(F)cc(F)c2)C3)cc1 (stereo not drawn) [Compound 123] | – | 30 nM | –
Cc1ccc(Nc2c(-c3ccc(F)cc3)nc3n2CCN(C(=O)C(O)c2ccc(O)cc2)C3)cc1 (stereo not drawn) [Compound 130] | – | 10 nM | –
Cc1ccc(Nc2c(-c3ccc(F)cc3)nc3n2CCN(C(=O)[C@@H](N)C(C)C)C3)cc1 [Compound 169] | – | 40 nM | –
NC(C(=O)N1CCn2c(nc(-c3ccc(F)cc3)c2Nc2ccc(Cl)c(F)c2)C1)C(F)(F)F (stereo not drawn) [Compound 194] | – | 50 nM | –
CO[C@@H](C)C(=O)N1CCn2c(nc(-c3ccc(F)cc3)c2Nc2ccc(C)cc2)C1 [Compound 198] | – | 1360 nM | –
Cc1ccc(Nc2c(-c3ccc(F)cc3)nc3n2CCN(C(=O)C2CCCO2)C3)cc1 (stereo not drawn) [Compound 200] | – | 910 nM | –
Cc1ccc(Nc2c(-c3ccc(F)cc3)nc3n2CCN(C(=O)[C@H](O)C(C)C)C3)cc1 [Compound 205] | 4 nM | – | –
CCCCC(=O)OC(C(=O)N1CCn2c(nc(-c3ccc(F)cc3)c2Nc2ccc(C)cc2)C1)c1ccccc1 (stereo not drawn) [Compound 270] | – | 50 nM | –
CN(c1ccc(Cl)c(F)c1)c1c(-c2ccc(F)cc2)nc2n1CCN(C(=O)CN)C2 [Compound 293] | – | 20 nM | –
CC[C@H](C)[C@H](N)C(=O)N1CCn2c(nc(-c3ccc(F)cc3)c2Nc2ccc(Cl)c(F)c2)C1 [Compound 317] | – | 20 nM | –
CC(C)C[C@H](N)C(=O)N1CCn2c(nc(-c3ccc(F)cc3)c2Nc2ccc(Cl)c(F)c2)C1 [Compound 322] | – | 40 nM | –
Cc1ccc(Nc2c(-c3cc(F)ccc3F)nc3n2CCNC3)cc1 [Compound 330] | – | 4470 nM | –
Fc1ccc(-c2nc3n(c2Nc2ccc(F)c(F)c2)CCNC3)cc1 [Compound 331, N-(3,4-difluorophenyl)-2-(4-fluorophenyl)-5,6,7,8-tetrahydroimidazo[1,2-a]pyrazin-3-amine] | – | 140 nM | –
O=C(C(Nc1ccccc1)c1ccccc1)N1CCn2c(nc(-c3ccc(F)cc3)c2Nc2ccc(Cl)c(F)c2)C1 (stereo not drawn) [Compound 332] | – | 1040 nM | –
O=C(Cc1ccccc1OC(F)(F)F)N1CCn2c(nc(-c3ccc(F)cc3)c2Nc2ccc(Cl)c(F)c2)C1 [Compound 333] | – | 1110 nM | –
O=C([C@@H](O)Cc1ccccc1)N1CCn2c(nc(-c3ccc(F)cc3)c2Nc2ccc(Cl)c(F)c2)C1 [Compound 334] | – | 50 nM | –
O=C(Cc1ccc(F)c(C(F)(F)F)c1)N1CCn2c(nc(-c3ccc(F)cc3)c2Nc2ccc(Cl)c(F)c2)C1 [Compound 335] | – | 2300 nM | –
O=C(COc1ccccc1)N1CCn2c(nc(-c3ccc(F)cc3)c2Nc2ccc(Cl)c(F)c2)C1 [Compound 336] | – | 40 nM | –
O=C1CC(C(=O)N2CCn3c(nc(-c4ccc(F)cc4)c3Nc3ccc(Cl)c(F)c3)C2)CCN1 (stereo not drawn) [Compound 337] | – | > 10000 nM | –
O=C([C@@H]1CCCN1)N1CCn2c(nc(-c3ccc(F)cc3)c2Nc2ccc(Cl)c(F)c2)C1 [Compound 338] | – | 190 nM | –

Structure (SMILES) | EC50 (W2 strain) | EC50 (3D7 P. falciparum strain; 3D7 strain) | EC50 (3D7 P. falciparum strain)
NC(CC(=O)N1CCn2c(nc(-c3ccc(F)cc3)c2Nc2ccc(Cl)c(F)c2)C1)C(F)(F)F (stereo not drawn) [Compound 339] | – | 520 nM | –
O=C([C@H]1CCCN1)N1CCn2c(nc(-c3ccc(F)cc3)c2Nc2ccc(Cl)c(F)c2)C1 [Compound 340] | – | 200 nM | –
Cc1ccc(C[C@H](N)C(=O)N2CCn3c(nc(-c4ccc(F)cc4)c3Nc3ccc(Cl)c(F)c3)C2)cc1 [Compound 341] | – | 10 nM | –
O=C(C1NCc2ccccc21)N1CCn2c(nc(-c3ccc(F)cc3)c2Nc2ccc(Cl)c(F)c2)C1 (stereo not drawn) [Compound 342] | – | 5240 nM | –
O=C([C@@H]1Cc2ccccc2N1)N1CCn2c(nc(-c3ccc(F)cc3)c2Nc2ccc(Cl)c(F)c2)C1 [Compound 343] | – | 7500 nM | –
N[C@H](CC(=O)N1CCn2c(nc(-c3ccc(F)cc3)c2Nc2ccc(Cl)c(F)c2)C1)Cc1ccc(Br)cc1 [Compound 344] | – | 210 nM | –
COc1ccc(CSC[C@@H](N)C(=O)N2CCn3c(nc(-c4ccc(F)cc4)c3Nc3ccc(Cl)c(F)c3)C2)cc1 [Compound 346] | – | > 8800 nM | –
O=C([C@H]1Cc2ccccc2CN1)N1CCn2c(nc(-c3ccc(F)cc3)c2Nc2ccc(Cl)c(F)c2)C1 [Compound 347] | – | 5920 nM | –
NC(CC(F)(F)F)C(=O)N1CCn2c(nc(-c3ccc(F)cc3)c2Nc2ccc(Cl)c(F)c2)C1 (stereo not drawn) [Compound 348] | – | 50 nM | –
CCCCOCCOCC(=O)N1CCn2c(nc(-c3ccc(F)cc3)c2Nc2ccc(C)cc2)C1 [Compound 349] | – | 7480 nM | –
CCOCC(=O)N1CCn2c(nc(-c3ccc(F)cc3)c2Nc2ccc(C)cc2)C1 [Compound 350] | – | 660 nM | –
COCCOCC(=O)N1CCn2c(nc(-c3ccc(F)cc3)c2Nc2ccc(C)cc2)C1 [Compound 351] | – | 1240 nM | –
Cc1ccc(Nc2c(-c3ccc(F)cc3)nc3n2CC(C)N(C(=O)CN)C3)cc1 (stereo not drawn) [Compound 352] | – | 10 nM | –
CC(C)(N)C(=O)N1CCn2c(nc(-c3cccc(F)c3)c2Nc2ccc(F)c(C#N)c2)C1 [Compound 353] | – | 210 nM | –
CN[C@H](CC(C)C)C(=O)N1CCn2c(nc(-c3ccc(F)cc3)c2Nc2ccc(C)cc2)C1 [Compound 377] | 574 nM | – | –
CC[C@H](N)C(=O)N1CCn2c(nc(-c3ccc(F)cc3)c2Nc2ccc(Cl)c(F)c2)C1 [Compound 393] | – | 20 nM | –
Fc1ccc(-c2nc3n(c2Nc2ccc(F)c(Cl)c2)CCNC3)cc1 [Compound 447] | – | 230 nM | –
N[C@@H](CC1CC1)C(=O)N1CCn2c(nc(-c3ccc(F)cc3)c2Nc2ccc(F)cc2)C1 [Compound 466] | – | 30 nM | –
CC(C)(N)C(=O)N1CCn2c(nc(-c3ccc(F)cc3)c2Nc2ccc(F)c(Cl)c2)C1 [Compound 492] | – | 50 nM | –
Cc1ccc(Sc2c(-c3ccc(F)cc3)nc3n2CCN(C(=O)CN)C3(C)C)cc1 [Compound 713, 2-amino-1-(2-(4-fluorophenyl)-8,8-dimethyl-3-(p-tolylthio)-5,6-dihydroimidazo[1,2-a]pyrazin-7(8H)-yl)ethanone] | – | 8 nM | –
Cc1ccc([S+]([O-])c2c(-c3ccc(F)cc3)nc3n2CCN(C(=O)CN)C3(C)C)cc1 (stereo not drawn) [Compound 721, 2-amino-1-(2-(4-fluorophenyl)-8,8-dimethyl-3-(p-tolylsulfinyl)-5,6-dihydroimidazo[1,2-a]pyrazin-7 (8H)-yl)ethanone] | – | 42 nM | –
